Measurements taken from patent publication US8106055B2, “Substituted amide compounds” (Gruenenthal GmbH, priority 2007, dated 2012).

The compounds below were run against T1, human bradykinin 1 receptor (B1R) (Homo sapiens, UniProt P46663) (assay: Functional investigation on the human bradykinin 1 receptor (B1R), Ca2+ FLIPR assay in CHO K1 hB1R cells). Settings: CHO-K1, B1R antagonism human; test substance 10 μM; Ca2+ FLIPR, CHO K1 hB1R cells; read-out: B1R Ant. h [10 μM] % Inhibition.
T1 construct: expressed in transfected cells; host or cells: CHO K1 cells
T1 sequence (P46663 1-353): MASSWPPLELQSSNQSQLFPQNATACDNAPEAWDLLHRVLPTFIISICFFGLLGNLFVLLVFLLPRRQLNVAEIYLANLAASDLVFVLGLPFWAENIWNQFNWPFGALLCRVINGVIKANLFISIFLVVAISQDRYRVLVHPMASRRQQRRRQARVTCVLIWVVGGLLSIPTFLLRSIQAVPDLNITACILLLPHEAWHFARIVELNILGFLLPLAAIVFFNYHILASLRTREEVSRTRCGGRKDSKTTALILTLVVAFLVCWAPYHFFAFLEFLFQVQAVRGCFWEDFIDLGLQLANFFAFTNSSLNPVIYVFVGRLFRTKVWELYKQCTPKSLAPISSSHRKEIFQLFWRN
Assay type: cell-based
In short: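 Cells were dye-loaded with Fluo-4 plus probenecid, then test substances added and Ca2+ influx compared with agonist control for % activation. After 10-20 min, EC80 agonist (Lys-Des-Arg9-bradykinin human; Des-Arg9-bradykinin rat) was applied; suppression gave % inhibition and IC50 values.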

Compared with `COc1ccc(S(=O)(=O)N2CCCCC2CCOCC(=O)NCC2CCC(C(c3cccs3)N(C)C)CC2)cc1` (centres unmarked) [Example 90, N-((4-((dimethylamino)(thiophen-2-yl)methyl)cyclohexyl)methyl)-2-(2-(1-(4-methoxyphenylsulfonyl)piperidin-2-yl)ethoxy)acetamide], `CN(C)C(c1cccs1)C1CCC(CNC(=O)COCCN(C)S(=O)(=O)c2ccc(OC(F)(F)F)cc2)CC1` (centres unmarked) [Example 93, N-((4-((dimethylamino)(thiophen-2-yl)methyl)cyclohexyl)methyl)-2-(2-(N-methyl-4-(trifluoromethoxy)phenylsulfonamido)ethoxy)acetamide] is lower in inhibition at 10 µM: 49% for the first, -2% for the second.

First: CN(C)C(c1ccccc1)C1CCC(CNC(=O)COCCN(C)S(=O)(=O)c2cccc(C(F)(F)F)c2)CC1 (centres unmarked) [Example 91, N-((4-((dimethylamino)(phenyl)methyl)cyclohexyl)methyl)-2-(2-(N-methyl-3-(trifluoromethyl)phenylsulfonamido)ethoxy)acetamide]
Second: CN(C)C(c1cccs1)C1CCC(CNC(=O)COCCN(C)S(=O)(=O)c2cccc(C(F)(F)F)c2)CC1 (centres unmarked) [Example 92, N-((4-((dimethylamino)(thiophen-2-yl)methyl)cyclohexyl)methyl)-2-(2-(N-methyl-3-(trifluoromethyl)phenylsulfonamido)ethoxy)acetamide]
The inhibition at 10 µM of the first is higher: 42% for the first, 31% for the second.

Work on `COc1ccc(S(=O)(=O)N2CCC(OCC(=O)NCCC3CCC(C(c4cccs4)N(C)C)CC3)C2)cc1OC` (centres unmarked) [Example 94, 2-(1-(3,4-dimethoxyphenylsulfonyl)pyrrolidin-3-yloxy)-N-(2-(4-((dimethylamino)(thiophen-2-yl)methyl)cyclohexyl)ethyl)acetamide] yielded an inhibition at 10 µM of -5%.
